# System: MPTP primates
# Test: Dyskinesia and locomotor studies in drug-naive MPTP primates incl. L-Dopa and apomorphine challenge
# Method: Evaluation of dyskinesias was performed in the efficacy studies describe above using a novel method for dyskinesia quantification based on video dyskinesia analysis (VDA) that assesses the whole range of dyskinetic movement continuously during the observed video sequence, using a standardized protocol.
# To mimic clinical conditions, these drug-naive animals were further challenged with acute systemic administration of L-Dopa then with a pro-dyskinetic short-acting D1/D2 dopaminergic agonist (apomorphine).
# Experimental Design. Neurotoxin MPTP was first administrated to 23 macaques until they developed severe Parkinsonism, these were then divided into experimental groups according to the following experiments: • 1. […] Animals were then challenged with L-Dopa and the number of dyskinesias was assessed with a specific software (The Observer®, Noldus)
# Behaviour. All animals were assessed daily for their general clinical condition with special attention paid to the nutritional status. At the same time, the general neurological state of each macaque was assessed both pre- and post-lentiviral injections. To objectively quantify our neurological observations, animals were video-taped for 30 minutes before MPTP lesioning and at regular intervals following viral injections. The videos were then analyzed off-line by an examiner blinded to the experimental conditions. […]
compound,measurement,setting,value
CN1CCc2cccc3c2[C@H]1Cc1ccc(O)c(O)c1-3 [apomorphine],dyskinesia induced by the drug in drug naive MPTP animals,"acute systemic administration, no therapeutic vector",induced hyperkinetic behaviour with numerous dyskinetic movements
same,locomotor activity of MPTP-long term and MPTP-LacZ primates after the drug,"oral L-Dopa / apomorphine injection, to levels similar to normal primates, p<0.05",improved the locomotor activity
